Results: patent US20110028686A1, “Protein binding miniature proteins” (Yale University, priority 2000, published 2011)
Square brackets hold non-standard residues; d marks the D form. Peptide text beside a SMILES is read from it. * marks the point of attachment. Fluorescein(5-NHCOCH2) = O=C(C*)Nc1ccc2c(c1)C(=O)OC21c2ccc(O)cc2Oc2cc(O)ccc21; pS = N[C@@H](COP(=O)(O)O)C(=O)O

Key:
Akt kinase (PKB) = Akt kinase (PKB) (Homo sapiens, UniProt P31749); experiment: Phosphotransferase assay, PKB; assay type: biochemical; details: 1-K252a up to 100 nM; 1 up to 5 μM
Sequence of Akt kinase (PKB) (P31749 whole entry, species assumed): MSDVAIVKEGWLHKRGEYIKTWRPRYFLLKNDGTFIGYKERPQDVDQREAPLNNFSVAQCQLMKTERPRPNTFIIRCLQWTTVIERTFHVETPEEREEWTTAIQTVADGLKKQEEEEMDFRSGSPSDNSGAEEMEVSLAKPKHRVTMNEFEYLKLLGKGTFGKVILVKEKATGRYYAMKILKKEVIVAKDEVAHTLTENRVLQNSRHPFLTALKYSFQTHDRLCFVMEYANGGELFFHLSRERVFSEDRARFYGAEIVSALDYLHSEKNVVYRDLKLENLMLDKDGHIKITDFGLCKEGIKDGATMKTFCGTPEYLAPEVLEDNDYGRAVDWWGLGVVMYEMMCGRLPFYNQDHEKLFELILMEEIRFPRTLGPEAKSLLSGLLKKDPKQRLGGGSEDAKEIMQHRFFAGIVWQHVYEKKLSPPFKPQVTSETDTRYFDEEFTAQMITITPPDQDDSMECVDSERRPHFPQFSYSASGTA

[1] = system: Ca++/calmodulin kinase II (CamKII); experiment: Phosphotransferase assay, CamKII; assay type: biochemical; details: 1-K252a up to 100 nM; 1 up to 5 μM
[2] = system: cGMP-dependent protein kinase (PKG); experiment: Phosphotransferase assay, PKG; assay type: biochemical; details: 1 up to 5 μM
PKA = PKA (Homo sapiens, UniProt P17612); experiment: PKA phosphotransferase assay, streptavidin-matrix capture of [32P]-phosphorylated substrates; assay type: biochemical; details: ATP and peptide substrate below KM
[3] = target: protein kinase Cα (PKC-α) (Homo sapiens, UniProt P17252); experiment: Phosphotransferase assay, PKC-α; assay type: biochemical; details: 1-K252a up to 100 nM; 1 up to 5 μM
[4] = target: T1, HisKIX (His-tagged CBP KIX domain) (Mus musculus, UniProt P45481); experiment: Equilibrium fluorescence polarization, HisKIX binding
T1 construct: The CBP KIX-coding region (residues 586 to 672) of pGEX-KT KIX 10-672; made in house; host or cells: E. coli BL21(DE3) pArg
T1 sequence (P45481 586-672): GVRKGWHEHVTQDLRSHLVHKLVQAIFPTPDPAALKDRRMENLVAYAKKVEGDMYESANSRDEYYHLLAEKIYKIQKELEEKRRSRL

CBP KIX K662A = target: T2, CBP KIX K662A (Mus musculus, UniProt P45481, K662A); experiment: Equilibrium fluorescence polarization, CBP KIX variant K662A; assay type: binding
T2 construct: made in house; host or cells: E. coli BL21(DE3) pArg
T2 sequence (P45481 586-665 K662A limits assumed): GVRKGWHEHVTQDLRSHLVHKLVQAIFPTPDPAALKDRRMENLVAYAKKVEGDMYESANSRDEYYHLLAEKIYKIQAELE

CBP KIX L603A = target: T3, CBP KIX L603A (Mus musculus, UniProt P45481, L603A); experiment: Equilibrium fluorescence polarization, CBP KIX variant L603A; assay type: binding
T3 construct: made in house; host or cells: E. coli BL21(DE3) pArg
T3 sequence (P45481 586-665 L603A limits assumed): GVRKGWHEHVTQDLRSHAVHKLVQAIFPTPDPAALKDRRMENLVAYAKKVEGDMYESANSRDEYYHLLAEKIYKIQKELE

CBP KIX L599A = target: T4, CBP KIX L599A (Mus musculus, UniProt P45481, L599A); experiment: Equilibrium fluorescence polarization, CBP KIX variant L599A; assay type: binding
T4 construct: made in house; host or cells: E. coli BL21(DE3) pArg
T4 sequence (P45481 586-665 L599A limits assumed): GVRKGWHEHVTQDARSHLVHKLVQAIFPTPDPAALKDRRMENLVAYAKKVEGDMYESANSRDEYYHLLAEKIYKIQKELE

CBP KIX Y658F = target: T5, CBP KIX Y658F (Mus musculus, UniProt P45481, Y658F); experiment: Equilibrium fluorescence polarization, CBP KIX variant Y658F; assay type: binding
T5 construct: made in house; host or cells: E. coli BL21(DE3) pArg
T5 sequence (P45481 586-665 Y658F limits assumed): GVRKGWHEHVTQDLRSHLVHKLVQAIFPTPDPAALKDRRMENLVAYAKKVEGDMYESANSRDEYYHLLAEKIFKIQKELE

CBP KIX LL652-3AA = target: T6, CBP KIX LL652-3AA (Mus musculus, UniProt P45481, L652A/L653A); experiment: Equilibrium fluorescence polarization, CBP KIX variant LL652-3AA; assay type: binding
T6 construct: made in house; host or cells: E. coli BL21(DE3) pArg
T6 sequence (P45481 586-665 L652A/L653A): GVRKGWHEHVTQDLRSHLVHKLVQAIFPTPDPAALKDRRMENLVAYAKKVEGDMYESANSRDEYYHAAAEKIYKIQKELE

CBP KIX I657A = target: T7, CBP KIX I657A (Mus musculus, UniProt P45481, I657A); experiment: Equilibrium fluorescence polarization, CBP KIX variant I657A; assay type: binding
T7 construct: made in house; host or cells: E. coli BL21(DE3) pArg
T7 sequence (P45481 586-665 I657A limits assumed): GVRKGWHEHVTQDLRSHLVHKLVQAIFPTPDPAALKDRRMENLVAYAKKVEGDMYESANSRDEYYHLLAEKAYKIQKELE

CBP KIX Y650A = target: T8, CBP KIX Y650A (Mus musculus, UniProt P45481, Y650A); experiment: Equilibrium fluorescence polarization, CBP KIX variant Y650A; assay type: binding
T8 construct: made in house; host or cells: E. coli BL21(DE3) pArg
T8 sequence (P45481 586-665 Y650A limits assumed): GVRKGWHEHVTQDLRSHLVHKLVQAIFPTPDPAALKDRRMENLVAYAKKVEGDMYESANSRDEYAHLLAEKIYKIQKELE

CBP KIX K606A = target: T9, CBP KIX K606A (Mus musculus, UniProt P45481, K606A); experiment: Equilibrium fluorescence polarization, CBP KIX variant K606A; assay type: binding
T9 construct: made in house; host or cells: E. coli BL21(DE3) pArg
T9 sequence (P45481 586-665 K606A limits assumed): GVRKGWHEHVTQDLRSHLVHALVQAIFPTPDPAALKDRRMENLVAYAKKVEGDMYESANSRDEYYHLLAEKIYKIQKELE

| Structure (SMILES) | inhibition of PKB phosphotransferase activity (Akt kinase (PKB)) | inhibition of CamKII phosphotransferase activity [1] | inhibition of PKG phosphotransferase activity [2] | IC50 (PKA) | inhibition of PKC-α phosphotransferase activity [3] | ΔΔG of HisKIX binding upon phosphorylation [4] | ΔΔG vs wild type CBP KIX, K662A (CBP KIX K662A) | ΔΔG vs wild type CBP KIX, L603A (CBP KIX L603A) | ΔΔG vs wild type CBP KIX, L599A (CBP KIX L599A) | ΔΔG vs wild type CBP KIX, Y658F (CBP KIX Y658F) | ΔΔG vs wild type CBP KIX, LL652-3AA (CBP KIX LL652-3AA) | ΔΔG vs wild type CBP KIX, I657A (CBP KIX I657A) | ΔΔG vs wild type CBP KIX, Y650A (CBP KIX Y650A) | ΔΔG vs wild type CBP KIX, K606A (CBP KIX K606A) |
| --- | --- | --- | --- | --- | --- | --- | --- | --- | --- | --- | --- | --- | --- | --- |
| COC(=O)[C@@]1(O)C[C@H]2O[C@]1(C)n1c3ccccc3c3c4c(c5c6ccccc6n2c5c31)C(=O)NC4 [K252a, reference compound] | inhibited by K252a | inhibited by K252a | inhibited by K252a | 140 ± 3 pM | inhibited by K252a | – | – | – | – | – | – | – | – | – |
| CC[C@H](C)[C@H](NC(=O)[C@H](CCCCN)NC(=O)[C@H](CCCNC(=N)N)NC(=O)[C@H](Cc1ccc(O)cc1)NC(=O)[C@H](COP(=O)(O)O)NC(=O)[C@@H]1CCCN1C(=O)[C@H](CCCNC(=N)N)NC(=O)[C@H](CCCNC(=N)N)NC(=O)[C@H](CO)NC(=O)[C@H](CC(C)C)NC(=O)[C@@H](NC(=O)[C@H](CCC(=O)O)NC(=O)[C@H](CCCNC(=N)N)NC(=O)[C@H](CCCNC(=N)N)NC(=O)[C@H](CCCCN)NC(=O)[C@H](CCC(N)=O)NC(=O)[C@H](CO)NC(=O)[C@H](CC(=O)O)NC(=O)[C@@H](N)[C@@H](C)O)[C@@H](C)CC)C(=O)N[C@@H](CC(C)C)C(=O)N[C@@H](CC(N)=O)C(=O)N[C@@H](CC(=O)O)C(=O)N[C@@H](CC(C)C)C(=O)N[C@@H](CO)C(=O)N[C@@H](CO)C(=O)N[C@@H](CC(=O)O)C(=O)N[C@@H](C)C(=O)N1CCC[C@H]1C(=O)NCC(=O)N[C@H](C(=O)N[C@@H](CSCC(=O)Nc1ccc2c(c1)C(=O)OC21c2ccc(O)cc2Oc2cc(O)ccc21)C(N)=O)C(C)C [KID-AB, reference compound] (H-TDSQKRREILSRRP[pS]YRKILNDLSSDAPGVC(Fluorescein(5-NHCOCH2))-NH2) | – | – | – | – | – | > 3.2 kcal/mol | 1.5 kcal/mol | 1.2 kcal/mol | 0.58 kcal/mol | 2.5 kcal/mol | 1.2 kcal/mol | 0.9 kcal/mol | 1.8 kcal/mol | 1.0 kcal/mol |
